Our source for the Kd values is PubChem BioAssay AID1549 (Sanford-Burnham Center for Chemical Genomics, 2009).

Activity calls are given as the source filed them. How the calls were made is not given here.

This experiment concerns the target Influenza A virus M2 proton channel (A/TW/4845/1999 H1N1). As to the kind of experiment: NMR binding screen, influenza A virus M2 proton channel, Kd (AID 1549). Particulars: M2 protein.
As for `Cc1nn(-c2ccccc2C(=O)O)c(=O)c2ccccc12`, the Kd is > 4 mM (inactive).

Turning to `c1ccc(-c2nnc3sc(-c4ccncc4)nn23)cc1`, the Kd is > 4 mM (inactive).

Regarding `O=C(O)CCSc1nc2ccccc2s1`, the Kd is > 4 mM (inactive).

In the case of `CC1(C)CN=C(Nc2nc3ccccc3s2)S1`, the Kd was > 4 mM (inactive).

For the molecule `CP(C)(=O)c1cccc(C(=O)O)c1`, the Kd was > 4 mM (inactive).

In the case of `O=C(NC1CCS(=O)(=O)C1)C1CCCCC1` (configuration not stated), the Kd was > 4 mM (inactive).

For the molecule `CCSc1nc(=S)n(CC)c(C)c1C(C)=O`, the Kd is > 4 mM (inactive).

Consider `O=C(O)C1Cc2ccccc2O1` (configuration not stated), for which the Kd was > 4 mM (inactive).

Turning to `Cc1cc2nc3c(=O)[nH]c(=O)nc-3n(CC(O)C(O)C(O)CO)c2cc1C` (configuration not stated), the Kd was > 4 mM (inactive).

Turning to `CC1(C)Cc2nc3n[nH]c(N)c3cc2CO1`, the Kd was > 4 mM (inactive).

As to `COC(=O)CSc1n[nH]c(N)n1`, the Kd is > 4 mM (inactive).

For `CCCCCCCCCCCCCCCCCCOCC(O)CO` (configuration not stated), the Kd is > 4 mM (inactive).

For the molecule `O=c1ccc2cc(O[C@@H]3O[C@H](CO)[C@@H](O)[C@H](O)[C@H]3O)c(O)cc2o1`, the Kd was > 4 mM (inactive).

Consider `O=c1c[n+]([O-])c2ccccc2n1OCc1ccccc1`, for which the Kd is > 4 mM (inactive).

Take `O=C(CSc1ccc(Cl)cc1)N1CCOCC1`: the Kd is > 4 mM (inactive).

As for `O=C(CSc1ncccn1)NCc1ccco1`, the Kd was > 4 mM (inactive).

As to `CNC(=S)Nc1ncn(Cc2cccc(F)c2)n1`, the Kd was > 4 mM (inactive).

As to `O=C(O)c1cc2ccccc2o1`, the Kd was > 4 mM (inactive).

As for `Cc1ccc(NC(=O)C2CCN(S(C)(=O)=O)CC2)cc1`, the Kd was > 4 mM (inactive).

For `CC(=O)Oc1ccc(O)cc1`, the Kd was > 4 mM (inactive).

Turning to `O=C(Nc1ccc(N2CCOCC2)cc1)C1CC1`, the Kd is > 4 mM (inactive).

As for `COC(=O)C1CCN(c2ccc(Cl)nn2)CC1`, the Kd was > 4 mM (inactive).

For the molecule `Nc1cc2ccccc2cn1`, the Kd was > 4 mM (inactive).

On to `COc1ccc(C[C@H]2NC[C@H](O)[C@H]2OC(C)=O)cc1`, for which the Kd is > 4 mM (inactive).

In the case of `CC12CC[C@H](CC1=O)C2(C)C`, the Kd is > 4 mM (inactive).

For the molecule `NC(=O)CN1CC(c2ccccc2)CC1=O` (configuration not stated), the Kd was > 4 mM (inactive).

On to `COC(=O)C1=CO[C@@H](O[C@@H]2O[C@H](CO)[C@@H](O)[C@H](O)[C@H]2O)[C@@H]2[C@@H](C)[C@@H](O)C[C@H]12`, for which the Kd was > 4 mM (inactive).

For the molecule `Cn1ncc(N2CCOCC2)c(Cl)c1=O`, the Kd is > 4 mM (inactive).

As to `NC(=O)CSc1nnnn1-c1ccccc1`, the Kd is > 4 mM (inactive).

Turning to `COc1ccc(Cl)cc1-c1n[nH]c(=S)n1C`, the Kd was > 4 mM (inactive).

For the molecule `O=C1C2CC=CCC2C(=O)N1c1cccc(O)c1` (configuration not stated), the Kd is > 4 mM (inactive).

`O=C(Nc1ccccn1)C(=O)N1CCCC1`: the Kd is > 4 mM (inactive).

Consider `Cn1nccc1N`, for which the Kd was > 4 mM (inactive).

As to `CCN=Cc1c(O)n(-c2ccccc2C)c(=O)[nH]c1=O`, the Kd was > 4 mM (inactive).

For `[O-][n+]1onc2c1CCc1c-2nc(-c2ccccc2)n1O`, the Kd was > 4 mM (inactive).

For `Nc1ccc(S(=O)(=O)N2CCCCC2)cc1`, the Kd is > 4 mM (inactive).

On to `COc1ccc(C(O)c2nccn2C)cc1` (configuration not stated), for which the Kd is > 4 mM (inactive).

As to `CN1C(=O)c2ccc(C(=O)NCc3ccccc3)cc2C1=O`, the Kd is > 4 mM (inactive).

Take `Oc1ccc(C(=S)N2CCCCC2)cc1Cl`: the Kd was > 4 mM (inactive).

Regarding `CC1(C)CC(=O)c2sc(N)nc2C1`, the Kd was > 4 mM (inactive).

`O=C(O)/C=C/c1ccc(O)c(O)c1`: the Kd was > 4 mM (inactive).

As to `O=C1NC(=O)C(C(=S)Nc2ccccc2)C(=O)N1`, the Kd was > 4 mM (inactive).

`CCc1c(C(=O)N2CCOCC2)csc1C`: the Kd is > 4 mM (inactive).

On to `CCSc1nnc2[nH]c(=O)cc(C)n12`, for which the Kd is > 4 mM (inactive).

Take `Cn1c(=O)[nH]c2nc[nH]c2c1=O`: the Kd was > 4 mM (inactive).

Consider `O=C(O)C1NCCc2ccccc21` (configuration not stated), for which the Kd is > 4 mM (inactive).

In the case of `CC(C)(C)P(=O)(O)c1ccccc1`, the Kd was > 4 mM (inactive).

`O=C(NC(=S)NC1CCSC1=O)c1ccco1` (configuration not stated): the Kd was > 4 mM (inactive).

In the case of `CC(CC(=O)O)n1cccn1` (configuration not stated), the Kd was > 4 mM (inactive).

On to `O=c1cc(O)n(-c2ccc(F)cc2)c(=S)[nH]1`, for which the Kd was > 4 mM (inactive).

In the case of `COc1cccc(-c2csc(NC(C)=O)n2)c1`, the Kd was > 4 mM (inactive).

On to `Nc1ccc2c(c1)N1CCN=C1S2`, for which the Kd was > 4 mM (inactive).

In the case of `O=c1oc2ccccc2cc1O`, the Kd is > 4 mM (inactive).

Turning to `CCCCN1C(=O)C2CC/C(=N/O)CC2C1=O` (configuration not stated), the Kd is > 4 mM (inactive).

In the case of `Cc1ccc(OCC(=O)n2cnnc2N)c(C)c1`, the Kd was > 4 mM (inactive).

With `Cc1ccc(C(=O)N2CCC(C(=O)O)CC2)cc1`, the Kd is > 4 mM (inactive).

`O=C(O)CCC(=O)c1c[nH]c2ccccc12`: the Kd is > 4 mM (inactive).

Consider `Cc1[nH]c2ccccc2c1C(=O)CSc1ncn[nH]1`, for which the Kd was > 4 mM (inactive).

With `O=C(NCCO)c1ccccc1I`, the Kd was > 4 mM (inactive).

With `CC1=NNC(=O)C1CCc1ccncc1` (configuration not stated), the Kd is > 4 mM (inactive).

On to `Cc1cc(C)c2ccc[n+]([O-])c2c1O`, for which the Kd is > 4 mM (inactive).

Turning to `COC(=O)c1ccccc1N(C)S(C)(=O)=O`, the Kd was > 4 mM (inactive).

Take `O=C(Nc1ccon1)c1ccc2c(c1)OCO2`: the Kd is > 4 mM (inactive).

With `COC(=O)CC1=Nc2ccccc2NC(=O)C1`, the Kd was > 4 mM (inactive).

As to `S=C1NC(=S)NC(c2ccc3c(c2)OCO3)N1`, the Kd is > 4 mM (inactive).

Regarding `COc1cc(O)ccc1C(C)=O`, the Kd was > 4 mM (inactive).

With `OCc1nccn1Cc1ccccc1`, the Kd was > 4 mM (inactive).

`CC(=O)OCC(=O)[C@@]1(O)CCC2C3CC[C@@H]4C[C@H](OC(C)=O)CC[C@]4(C)C3C(=O)C[C@@]21C` (some centres not stated): the Kd is > 4 mM (inactive).

With `O=C1C2C3CCC(O3)C2C(=O)N1c1ccccc1` (configuration not stated), the Kd is > 4 mM (inactive).

For the molecule `O=c1oc(-c2ccccc2)nc2c1cnn2-c1ccccc1`, the Kd was > 4 mM (inactive).

Turning to `Nc1cccnc1N1CCOCC1`, the Kd was > 4 mM (inactive).

On to `CN1CCC(NC(=O)c2ccccc2[N+](=O)[O-])CC1`, for which the Kd was > 4 mM (inactive).

Consider `CC(=O)O[C@@H]1CC2C(C)(C)C(=O)C3OC3[C@]2(C)C2CC[C@@]3(C)[C@H](c4ccoc4)OC(=O)C4OC43[C@@]21C` (some centres not stated), for which the Kd is > 4 mM (inactive).

On to `NC1CN2CCC1CC2` (configuration not stated), for which the Kd is > 4 mM (inactive).

On to `Cc1sc2nc3n(c(=O)c2c1C)CCCS3`, for which the Kd was > 4 mM (inactive).

In the case of `CC1(C)N=C2C(=[N+]1[O-])CCC/C2=N\O`, the Kd is > 4 mM (inactive).

Regarding `CNC(=O)c1ccccc1N`, the Kd was > 4 mM (inactive).

For the molecule `OC1CCN(c2nccc(C(F)(F)F)n2)CC1`, the Kd was > 4 mM (inactive).

With `CC1/C(=N/O)C[C@@H]2C[C@H]1C2(C)C` (some centres not stated), the Kd was > 4 mM (inactive).

Regarding `COc1cc2c3cc1Oc1c(OC)c(OC)cc4c1[C@@H](Cc1cccc(c1)Oc1ccc(c(O)c1)C[C@@H]3N(C)CC2)N(C)CC4`, the Kd was > 4 mM (inactive).

Turning to `COc1cc(OC)c2c(c1)O[C@H](c1ccc(OC)c(OC)c1)[C@@H](O)C2`, the Kd is > 4 mM (inactive).

With `CC1(C)C[C@@H]2C(=O)CC[C@H]3O[C@]3(C)CC[C@H]21`, the Kd is > 4 mM (inactive).

For `O=C(O)CCC(=O)Nc1nnc(C(F)(F)F)s1`, the Kd is > 4 mM (inactive).

Turning to `Oc1ccc2c(c1)OCO2`, the Kd is > 4 mM (inactive).

Regarding `O=S(=O)(c1cccc2cccnc12)N1CCOCC1`, the Kd is > 4 mM (inactive).

Turning to `CC(=O)NC(C)(C)C1CC=C(C)/C(=N\O)C1` (configuration not stated), the Kd is > 4 mM (inactive).

For `Cc1nc2cc(NC(=O)Nc3nccs3)ccc2n1C`, the Kd is > 4 mM (inactive).

Regarding `O=S1(=O)CCC(N2CCCCC2)C1` (configuration not stated), the Kd was > 4 mM (inactive).

Regarding `Nc1nonc1-c1nc2ccccc2[nH]1`, the Kd is > 4 mM (inactive).

Turning to `COC(=O)C1CCc2ccccc2N1` (configuration not stated), the Kd is > 4 mM (inactive).

For the molecule `NC(=O)c1ccccc1NC(=O)C1CC1`, the Kd is > 4 mM (inactive).

For `O=C(Nc1cccc(Cl)c1)c1ccncc1`, the Kd is > 4 mM (inactive).

Consider `Nc1csc(C(=O)O)c1`, for which the Kd is > 4 mM (inactive).

With `NC1=NC(=O)/C(=C\c2cccnc2)S1`, the Kd was > 4 mM (inactive).

Take `O=C1CCCN1c1ccc(S(=O)O)cc1`: the Kd is > 4 mM (inactive).

Take `CSc1ccccc1NC(=O)c1ccncc1`: the Kd was > 4 mM (inactive).

On to `C/C=C/c1ccc2c(c1)OCO2`, for which the Kd was > 4 mM (inactive).

For `CC(C)c1ccc(NC(=O)C(N)=O)cc1`, the Kd was > 4 mM (inactive).

As for `CCOC(=O)c1ccc(Oc2ccc(C)nn2)cc1`, the Kd was > 4 mM (inactive).

As for `Cc1cccc(NC(=O)CN2C(=O)CNC2=O)c1`, the Kd was > 4 mM (inactive).

`O=C1CCC(=O)N1c1cccnc1`: the Kd is > 4 mM (inactive).

With `Cc1c(C)[n+]([O-])c(-c2ccc([N+](=O)[O-])cc2)n1O`, the Kd was > 4 mM (inactive).

On to `O=C(NC1=NCCS1)c1ccc([N+](=O)[O-])cc1Cl`, for which the Kd was > 4 mM (inactive).

`Cc1cc(=O)oc2cc3c(cc12)OCCO3`: the Kd is > 4 mM (inactive).

Regarding `O=C1CSC(c2ccc3c(c2)OCO3)N1` (configuration not stated), the Kd is > 4 mM (inactive).

As to `C=CCn1c(N)c(C(=O)N2CCOCC2)sc1=S`, the Kd is > 4 mM (inactive).

As for `Nc1ccc2c(c1)C(=O)OC2`, the Kd was > 4 mM (inactive).

What is called Kd is the free concentration of one partner at which half of the binding sites on the other are occupied at equilibrium, for simple one-to-one binding.
